Results published in paper PMC7617869, “Molecular glues that inhibit deubiquitylase activity and inflammatory signaling” (Nature Structural & Molecular Biology, 2025).
Several values for one entry are separate records, joined by “and”; a condition that tells them apart may be missing. Equal values may be shown once. Blank lines part the entries; values can stand above or below the molecule they belong to.

Experiments:
[1] = system: trypsin; assay: Trypsin IQF diubiquitin selectivity assay; format: biochemical; conditions: for Normalised V0: Trypsin; for TRYPSIN, normalised activity (Ext. 1a): two replicate columns
Experimental: BRISC DUB activity was measured at room temperature using 1 nM BRISC and 500 nM IQF diubiquitin K63 substrate (LifeSensors, DU6303) in the presence of DMSO and compounds at 10 μM (final concentrations). Assays were performed in 384-well black flat-bottom low-flange plates (Corning, 35373) in buffer containing 50 mM HEPES–NaOH pH 7.0, 100 mM NaCl, 1 mg ml^−1 BSA, 1 mM DTT and 0.03% v/v Brij-35. Then, 10 μl of twofold concentrated enzyme stock was dispensed, followed by transfer of 200 nl of compounds (1 mM stock) using a 384-pin tool and a 15-min incubation at room temperature. Then, 10 μl of twofold concentrated substrate stock was added and the reaction was monitored by measuring fluorescence intensity (excitation, 540 nm; emission, 580 nm) after 20-min incubation at room temperature and ~50% of substrate was consumed. Orthogonal assays for verification of H20 and P12 hit compounds using USP2 (100 nM) and trypsin (125 nM) were performed in identical conditions.
IQF assays were performed in DUB reaction buffer containing 50 mM HEPES–NaOH pH 7.0, 100 mM NaCl, 0.1 mg ml^−1 BSA, 1 mM DTT and 0.03% v/v Brij-35. […] The final concentration of BRISC WT, all BRISC mutants, HsBRISCΔLoop, MmBRISC and DrBRISCΔNΔC was 1 nM. Other enzymes were tested at the following concentrations: 5 nM ARISC (FL), 10 nM CfBRISCΔNΔC, 250 nM AMSH* (ref. [43]), 500 nM USP2 and 1 μM trypsin (Sigma, 9002-07-7). For Michaelis–Menten experiments, 1 nM BRISC with 0–1 μM IQF K63-linked diubiquitin substrate was used. Michaelis–Menten analyses and Lineweaver–Burk plots were calculated using GraphPad Prism (version 9.0).
To assess enzymatic activity, BRISC complexes were diluted to concentrations between 1 nM and 50 nM. […] Then, 20-μl enzyme reactions were carried out in 384-well black flat-bottom low-flange plates (Corning, 35373). DUB activity was measured using IQF K63-linked diubiquitin (LifeSensors, DU6303) at 50 nM. Cleaved diubiquitin was monitored by measuring fluorescence intensity (excitation, 544 nm; emission, 575 nm; dichroic mirror, 560 nm). Fluorescence intensity was measured every minute for 30 min at 30 °C. Fluorescence intensity units were plotted against time to generate a linear reaction progress curve, where the initial velocity (V0) corresponds to the gradient of the curve (typically achieved within 15 min). IC50 values were calculated using the GraphPad Prism (version 9.0) built-in dose–response equation for inhibitor concentration versus response (variable slope).

[2] = molecular target: T1, BRISC (FL) / BRISCΔNΔC (Homo sapiens, UniProt P46736+Q15018+Q9NXR7); assay: Mass photometry of BRISC dimer formation; conditions: for Dimer fraction: 50 nM BRISCΔNΔC
T1 construct: BRISCΔNΔC (MERIT40ΔN, Abraxas 2ΔC); made in house; host or cells: Spodoptera frugiperda Sf9 insect cells (MultiBac)
Experimental: Immediately before mass photometry measurement, the BRISC–inhibitor mix was diluted in 25 mM HEPES pH 7.5, 150 mM NaCl and 1 mM TCEP to 10 nM BRISC ([…]). Then, 12 μl of the diluted sample was used for the final mass photometry measurement, following autofocus stabilization. […] Next, 0.5 μl of inhibitor was mixed with 19.5 μl of 50 nM BRISCΔNΔC (2.5% v/v DMSO) and incubated at room temperature for 15 min. The BRISC–inhibitor mix was used directly for mass photometry measurement using buffer-free autofocus stabilization.
Microscope coverslips were prepared according to an established protocol. Experiments were performed using a OneMP mass photometer (Refeyn). Videos were recorded for 60 s using AcquireMP (Refeyn) and processed using DiscoverMP (Refeyn). Mass photometry image processing was previously described. Briefly, contrast-to-mass (C2M) calibration was performed using protein standards (66–669 kDa) diluted in buffer (25 mM HEPES pH 7.5, 150 mM NaCl and 1 mM TCEP). […] The mass distribution from each run was in the form of a histogram, where the count refers to each landing event and a Gaussian sum is fitted to the data. The relative amount of each species was calculated as the area of each Gaussian, where σ refers to the s.d. of the fitted Gaussian. The dimer fraction refers to the percentage of the total counts corresponding to the 564-kDa BRISCΔNΔC dimer complex. Curves and half-maximal effective concentration values were fitted and calculated using the GraphPad Prism (version 9.0) built-in dose–response equation for concentration of agonist versus response (variable slope).

[3] = molecular target: T2, BRISC (FL) (Homo sapiens, UniProt P46736+Q15018+Q9NXR7); assay: Native MS of BRISC with inhibitor; conditions: 10 μM BRISC, 1 mM inhibitor
T2 construct: full-length BRISC (FL), ARISC (FL); made in house; host or cells: Spodoptera frugiperda Sf9 insect cells (MultiBac)
Experimental: Samples were buffer-exchanged into 500 mM ammonium acetate using Zeba Spin (7-kDa molecular weight cutoff) desalting columns (Thermo Fisher Scientific). Samples were analyzed by nanoelectrospray ionization MS using a quadrupole orbitrap MS (Q-Exactive UHMR, Thermo Fisher Scientific) using gold–palladium-coated nanospray tips prepared in-house. The MS instrument was operated in positive ion mode using a capillary voltage of 1.5 kV, capillary temperature of 250 °C and S-lens radiofrequency of 200 V. In-source trapping was used with a desolvation voltage of −200 V for 4 μs. Extended trapping was not used. The quadrupole mass range was 2,000–15,000 m/z. Nitrogen gas was used in the higher-energy collisional dissociation cell with a trap gas pressure setting of 5. Orbitrap resolution was 6,250 and detector m/z optimization was low. Five microscans were averaged and an automatic gain control target of 2 × 10^5 was used. Mass calibration was performed by a separate injection of sodium iodide at a concentration of 2 μg μl^−1. Data processing was performed using QualBrowser (version 4.2.28.14) and deconvoluted using UniDec[82].

Dimer fraction ([2]; [Inhibitor (μM)] 5000): 0.32 and 0.27 and 0.22 | Dimer fraction ([2]; [Inhibitor (μM)] 10000): 0.35 and 0.32 and 0.21
SMILES: O=C(NC1CCNCC1)c1nn(C(=O)c2c(Cl)cccc2Cl)cc1NC(=O)c1c(Cl)cccc1Cl [JMS-175-2]
Normalised V0 ([1]; Fig. 1e, JMS-175-2 0.02 μM): 1.129 and 1.522 and 0.9592 | Normalised V0 ([1]; Fig. 1e, JMS-175-2 0.0399999 μM): 1.059 and 1.128 and 0.891 | Normalised V0 ([1]; Fig. 1e, JMS-175-2 0.0599997 μM): 1.053 and 1.443 and 1.028 | Normalised V0 ([1]; Fig. 1e, JMS-175-2 0.0799994 μM): 1.079 and 1.241 and 1.027 | Normalised V0 ([1]; Fig. 1e, JMS-175-2 0.119998 μM): 1.132 and 1.572 and 1.058 | Normalised V0 ([1]; Fig. 1e, JMS-175-2 0.199996 μM): 1.063 and 1.165 and 0.9014 | Normalised V0 ([1]; Fig. 1e, JMS-175-2 0.499975 μM): 1.046 and 1.263 and 0.9518 | Normalised V0 ([1]; Fig. 1e, JMS-175-2 0.799936 μM): 1.084 and 1.3 and 1.031 | Normalised V0 ([1]; Fig. 1e, JMS-175-2 1.25984 μM): 1.117 and 1.247 and 0.9792 | Normalised V0 ([1]; Fig. 1e, JMS-175-2 1.9996 μM): 1.2322 and 1.34 and 0.9526 | Normalised V0 ([1]; Fig. 1e, JMS-175-2 3.159 μM): 1.104 and 1.275 and 0.8695 | Normalised V0 ([1]; Fig. 1e, JMS-175-2 5.19739 μM): 1.019 and 1.261 and 1.016 | Normalised V0 ([1]; Fig. 1e, JMS-175-2 7.99364 μM): 1.1 and 1.362 and 0.8881 | Normalised V0 ([1]; Fig. 1e, JMS-175-2 12.7839 μM): 1.055 and 1.3161 and 0.9778 | Normalised V0 ([1]; Fig. 1e, JMS-175-2 19.96 μM): 1.0605 and 1.284 and 0.9014 | Normalised V0 ([1]; Fig. 1e, JMS-175-2 31.4999 μM): 1.012 and 1.285 and 0.8918 | Normalised V0 ([1]; Fig. 1e, JMS-175-2 50.147 μM): 0.965 and 1.142 and 0.7769 | Normalised V0 ([1]; Fig. 1e, JMS-175-2 79.7601 μM): 0.9096 and 1.115 and 0.8428 | Normalised V0 ([1]; Fig. 1e, JMS-175-2 125.99 μM): 0.8068 and 0.9447 and 0.6574 | Normalised V0 ([1]; Fig. 1e, JMS-175-2 199.922 μM): 0.6351 and 0.815 and 0.623 | TRYPSIN, normalised activity (Ext. 1a) ([1]; log [compound (μM)] 0.1938, listed as H20): 1.0307 and 1.0157 | TRYPSIN, normalised activity (Ext. 1a) ([1]; log [compound (μM)] 0.4949, listed as H20): 1.0959 and 1.0924 | TRYPSIN, normalised activity (Ext. 1a) ([1]; log [compound (μM)] 0.7959, listed as H20): 1.0739 and 0.9776 | TRYPSIN, normalised activity (Ext. 1a) ([1]; log [compound (μM)] 1.0969, listed as H20): 1.0282 and 0.9851 | TRYPSIN, normalised activity (Ext. 1a) ([1]; log [compound (μM)] 1.3979, listed as H20): 0.9308 and 0.8423 | TRYPSIN, normalised activity (Ext. 1a) ([1]; log [compound (μM)] 1.6990, listed as H20): 0.8444 and 0.8335 | TRYPSIN, normalised activity (Ext. 1a) ([1]; log [compound (μM)] 2.0000, listed as H20): 0.8160 and 0.6662 | TRYPSIN, normalised activity (Ext. 1a) ([1]; log [compound (μM)] 2.3010, listed as H20): 0.6941 and 0.5461 | TRYPSIN, normalised activity (Ext. 1a) ([1]; log [compound (μM)] -0.1072, listed as H20): 1.2914 and 1.0218 | TRYPSIN, normalised activity (Ext. 1a) ([1]; log [compound (μM)] -0.4082, listed as H20): 1.0017 and 0.9864 | TRYPSIN, normalised activity (Ext. 1a) ([1]; log [compound (μM)] -0.7093, listed as H20): 0.9551 and 0.9457 | TRYPSIN, normalised activity (Ext. 1a) ([1]; log [compound (μM)] -1.7100, normalisation point): 1.0000 | dimer formation with increasing inhibitor concentration (mass photometry) [2]: dose-dependent increase in dimer formation | BRISC dimers detected by native MS [3]: BRISC dimers with 4:4:4:4 stoichiometry were detected

Dimer fraction ([2]; [Inhibitor (μM)] 2500): 0.36 and 0.38 and 0.35 | Dimer fraction ([2]; [Inhibitor (μM)] 10000): 0.31 and 0.43 and 0.4
SMILES: O=C(NC1C2CNCC21)c1nn(C(=O)c2c(Cl)cccc2Cl)cc1NC(=O)c1c(Cl)cccc1Cl (stereo not drawn) [FX-171-C]
Normalised V0 ([1]; Fig. 1g, FX-171-C 0.02 μM): 0.9754 and 1.082 and 1.037 | Normalised V0 ([1]; Fig. 1g, FX-171-C 0.0399999 μM): 0.8958 and 1.072 and 0.9551 | Normalised V0 ([1]; Fig. 1g, FX-171-C 0.0599997 μM): 0.994 and 1.174 and 1.005 | Normalised V0 ([1]; Fig. 1g, FX-171-C 0.0799994 μM): 0.9908 and 1.085 and 0.9856 | Normalised V0 ([1]; Fig. 1g, FX-171-C 0.119998 μM): 0.909 and 1.102 and 1.137 | Normalised V0 ([1]; Fig. 1g, FX-171-C 0.199996 μM): 1.048 and 1.0751 and 0.9569 | Normalised V0 ([1]; Fig. 1g, FX-171-C 0.499975 μM): 0.9677 and 1.122 and 0.9918 | Normalised V0 ([1]; Fig. 1g, FX-171-C 0.799936 μM): 0.9633 and 1.093 and 0.8806 | Normalised V0 ([1]; Fig. 1g, FX-171-C 1.25984 μM): 1.083 and 0.9949 and 1.069 | Normalised V0 ([1]; Fig. 1g, FX-171-C 1.9996 μM): 1.032 and 1.136 and 0.9684 | Normalised V0 ([1]; Fig. 1g, FX-171-C 3.159 μM): 0.959 and 1.075 and 1.119 | Normalised V0 ([1]; Fig. 1g, FX-171-C 5.19739 μM): 1.013 and 1.118 and 1.082 | Normalised V0 ([1]; Fig. 1g, FX-171-C 7.99364 μM): 1.036 and 1.142 and 1.053 | Normalised V0 ([1]; Fig. 1g, FX-171-C 12.7839 μM): 1.107 and 1.095 and 0.9652 | Normalised V0 ([1]; Fig. 1g, FX-171-C 19.96 μM): 0.9382 and 0.9859 and 0.9654 | Normalised V0 ([1]; Fig. 1g, FX-171-C 31.4999 μM): 0.9264 and 1.08 and 0.8456 | Normalised V0 ([1]; Fig. 1g, FX-171-C 50.147 μM): 0.8123 and 0.9453 and 0.8818 | Normalised V0 ([1]; Fig. 1g, FX-171-C 79.7601 μM): 0.7444 and 0.9554 and 0.7546 | Normalised V0 ([1]; Fig. 1g, FX-171-C 125.99 μM): 0.6817 and 0.8207 and 0.6739 | Normalised V0 ([1]; Fig. 1g, FX-171-C 199.922 μM): 0.4322 and 0.4467 and 0.4966 | dimer formation with increasing inhibitor concentration (mass photometry) [2]: dose-dependent increase in dimer formation | BRISC dimers detected by native MS [3]: BRISC dimers with 4:4:4:4 stoichiometry were detected
